According to US6858235B2, “Antioxidant composition and method of preparation thereof” (Eromlife Co. Ltd., priority 2002, dated 2005):

Assay: Antioxidant activity using the free radical source DPPH (absorbance at 517 nm)
Type: biochemical
Details: for Antioxidant activity RC50: DPPH 0.4 mM, room temperature, 30 minutes, absorbance 517 nm, concentration giving 50% of control absorbance
Experimental: The antioxidant activity of the Rosa multiflora extract of the present invention obtained according to the above method was measured according to the method for measuring antioxidant activity (The Korean Society of Food and Nutrition, Handbook for Experiments in Food and Nutrition, 651p, 2000; Blois, M. S., Nature, 4617:1198, 1958).
In addition, active fractions showing antioxidant activity can be obtained by fractionating and purifying the obtained Rosa multiflora extracts by chromatography. It is preferable to carry out silica gel column chromatography once or twice. Where active fractions obtained by silica gel column chromatography are further subjected to ODS column chromatography, more highly purified active fractions can be obtained. A mixture of chloroform and methanol or a mixture of methanol and distilled water can be used as a developing solvent at the time of chromatography. A flow rate of the developing solvent is generally from 5 Ml/hr to 1000 Ml/hr and preferably from 20 Ml/hr to 500 Ml/hr. The fractions eluted by chromatography are collected in flasks in the amount of 5 Ml to 100 Ml respectively. Active fractions showing antioxidant activity can be obtained by measuring antioxidant activities of the collected fractions. Antioxidant activity can be measured by a known method (The Korean Society of Food and Nutrition, Handbook for Experiments in Food and Nutrition, 651p, 2000; Blois, M. S., Nature, 4617:1198, 1958).
Antioxidant activity was measured according to the method for measuring antioxidant activity using a free radical source, 1,1-diphenyl-2-picrylhydrazyl (DPPH) (The Korean Society of Food and Nutrition, Handbook for Experiments in Food and Nutrition, 651p, 2000; Blois, M. S., Nature, 4617: 1198, 1958). […] 0.8 Ml of DPPH (0.4 mM) solution and 3 Ml of ethanol were added, the reaction was carried out at the room temperature for 30 minutes and absorbance was measured at 517 nm. Antioxidant activity was expressed as a RC50 value. The RC50 represents the concentration of antioxidant (μg/Ml) required to achieve an absorbance equal to 50% of the absorbance of a control in which no antioxidants are contained.

## COc1ccc(O)c(C(C)(C)C)c1 [BHA, butylated hydroxy anisole, reference compound]
  Antioxidant activity RC50: 9.2 µg/mL

## Oc1cc(O)c2c(c1)O[C@H](c1ccc(O)c(O)c1)[C@@H](O)[C@@H]2c1c(O)cc(O)c2c1O[C@H](c1ccc(O)c(O)c1)[C@@H](O)C2 [Procyanidin B3, catechin-(4α→8)-catechin]
  Antioxidant activity RC50: 3.4 µg/mL
Compared with the natural antioxidant α-tocopherol, DPPH RC50
  Antioxidant activity relative to α-tocopherol (times stronger): 3.8 times
Compared with the synthetic antioxidant BHA, DPPH RC50
  Antioxidant activity relative to BHA (times stronger): 2.7 times

## Cc1c(C)c2c(c(C)c1O)CC[C@@](C)(CCC[C@H](C)CCC[C@H](C)CCCC(C)C)O2 [α-tocopherol, reference compound]
  Antioxidant activity RC50: 13.0 µg/mL
